# Tested on: TNF-α
# Assay: Western blot of TNF-α in prefrontal cortex brain tissue, acute hypobaric hypoxia model
# Format: in vivo, cynomolgus monkeys
# Conditions: FIGS. 3A and 3B
# Excerpt: FIG. 3. […] A. Protein expression of inflammatory factors IL-6, IL-1β and TNF-α in the brain tissue of the prefrontal cortex of cynomolgus monkeys; B. Statistics of protein relative gray scan values. NN: Normobaric Normoxia group (N=3); HH: Hypobaric Hypoxia group (N=3); HH+Triol: Hypobaric Hypoxia with Triol administration group (N=3); HH+PROG: Hypobaric Hypoxia with control drug administration group (N=3). The gray value was obtained by scanning with Image Lab software, and the relative value was obtained after normalizing with α-Tubulin. One-way ANOVA analysis and Dunnutt's t test were used to perform statistical tests, and in the latter each group was compared with the HH group, *, p<0.05; **, p<0.01.
# 1) Preparation of protein samples (see the instructions of M-PER protein lysate): After the cells had been processed for the specified time, the medium was aspirated and then washed with 4° C. pre-chilled PBS (0.01M pH7.2˜7.3) for 3 times. […] 2) BCA protein quantification (see the instructions of BCA protein quantification kit): corresponding components were added to a 96-well detection plate by the ratio of quantification reagent A solution:B solution:ddH2O:protein=100:2:7.5:5, and albumin standards diluted in gradient concentration were added to draw a standard curve. […] After the reaction, the absorbance of each well at a wavelength of 562 nm was detected using a microplate reader. […]
compound,measurement,value
"C[C@@]12CCCC1C1C[C@@H](O)[C@@]3(O)C[C@@H](O)CC[C@]3(C)C1CC2 (stereo partly drawn) [Triol, 5α-androst-3β,5,6β-triol]",expression level of TNF-α,significantly reduced
